Key:
[1] = target: 5'-AMP-activated protein kinase catalytic subunit alpha-2 (Homo sapiens) (UniProt P54646)
[2] = target: Cyclin-dependent kinase 7 (Homo sapiens) (UniProt P50613)
[3] = target: Dual specificity protein kinase CLK2 (Homo sapiens) (UniProt P49760)
[4] = target: Tyrosine-protein kinase CSK (Homo sapiens) (UniProt P41240)
[5] = system: Epidermal growth factor receptor (Homo sapiens), P00533 [UNDEFINED MUTATION]
[6] = target: Tyrosine-protein kinase Fes/Fps (Homo sapiens) (UniProt P07332)
Chain of Tyrosine-protein kinase Fes/Fps (Homo sapiens) (P07332 whole entry): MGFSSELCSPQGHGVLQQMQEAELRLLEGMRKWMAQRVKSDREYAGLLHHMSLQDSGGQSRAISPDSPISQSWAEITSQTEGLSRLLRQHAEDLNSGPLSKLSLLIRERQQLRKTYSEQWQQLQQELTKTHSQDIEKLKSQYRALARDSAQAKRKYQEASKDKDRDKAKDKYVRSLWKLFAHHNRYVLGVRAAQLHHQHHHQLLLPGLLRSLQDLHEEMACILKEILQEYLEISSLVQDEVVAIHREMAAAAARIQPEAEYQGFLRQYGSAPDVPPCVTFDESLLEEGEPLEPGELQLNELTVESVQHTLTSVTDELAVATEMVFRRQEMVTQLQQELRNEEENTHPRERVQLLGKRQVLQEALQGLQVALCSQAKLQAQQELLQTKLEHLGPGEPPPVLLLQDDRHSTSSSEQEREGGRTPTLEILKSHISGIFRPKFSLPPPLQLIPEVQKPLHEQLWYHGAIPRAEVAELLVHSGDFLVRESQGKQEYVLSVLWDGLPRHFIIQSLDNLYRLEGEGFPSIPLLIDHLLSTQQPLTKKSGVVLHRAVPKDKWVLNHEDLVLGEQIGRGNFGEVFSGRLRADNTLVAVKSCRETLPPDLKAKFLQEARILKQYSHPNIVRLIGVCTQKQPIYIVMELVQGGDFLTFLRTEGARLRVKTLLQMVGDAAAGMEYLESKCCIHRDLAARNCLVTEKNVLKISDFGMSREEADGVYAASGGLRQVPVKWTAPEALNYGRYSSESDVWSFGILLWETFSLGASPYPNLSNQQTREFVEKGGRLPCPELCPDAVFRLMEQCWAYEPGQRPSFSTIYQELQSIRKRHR

[7] = target: Fibroblast growth factor receptor 1 (Homo sapiens) (UniProt P11362)
Chain of Fibroblast growth factor receptor 1 (Homo sapiens) (P11362 22-822 limits assumed): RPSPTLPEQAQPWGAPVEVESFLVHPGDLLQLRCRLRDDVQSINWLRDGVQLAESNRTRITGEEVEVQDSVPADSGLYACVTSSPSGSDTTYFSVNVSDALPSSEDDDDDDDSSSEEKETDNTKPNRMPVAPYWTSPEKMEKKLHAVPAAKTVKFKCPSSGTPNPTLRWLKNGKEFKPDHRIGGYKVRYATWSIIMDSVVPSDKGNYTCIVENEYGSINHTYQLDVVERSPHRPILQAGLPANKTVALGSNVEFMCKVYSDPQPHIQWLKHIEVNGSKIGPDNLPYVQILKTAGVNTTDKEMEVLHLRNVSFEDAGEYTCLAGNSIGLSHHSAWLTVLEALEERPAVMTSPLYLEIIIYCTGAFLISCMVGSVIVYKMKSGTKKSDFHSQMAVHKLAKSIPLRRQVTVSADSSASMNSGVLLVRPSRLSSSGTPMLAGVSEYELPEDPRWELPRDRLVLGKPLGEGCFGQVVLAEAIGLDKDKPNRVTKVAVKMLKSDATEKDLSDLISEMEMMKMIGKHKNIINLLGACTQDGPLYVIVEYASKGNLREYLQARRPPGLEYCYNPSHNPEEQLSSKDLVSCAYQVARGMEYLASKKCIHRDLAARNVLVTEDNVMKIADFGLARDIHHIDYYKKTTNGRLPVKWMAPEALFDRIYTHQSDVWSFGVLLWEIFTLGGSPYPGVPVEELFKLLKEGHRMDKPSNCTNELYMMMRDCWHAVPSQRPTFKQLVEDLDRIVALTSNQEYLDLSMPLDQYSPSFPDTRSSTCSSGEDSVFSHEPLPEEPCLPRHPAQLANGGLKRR

[8] = target: Receptor-type tyrosine-protein kinase FLT3 (Homo sapiens) (UniProt P36888)
Chain of Receptor-type tyrosine-protein kinase FLT3 (Homo sapiens) (P36888 whole entry): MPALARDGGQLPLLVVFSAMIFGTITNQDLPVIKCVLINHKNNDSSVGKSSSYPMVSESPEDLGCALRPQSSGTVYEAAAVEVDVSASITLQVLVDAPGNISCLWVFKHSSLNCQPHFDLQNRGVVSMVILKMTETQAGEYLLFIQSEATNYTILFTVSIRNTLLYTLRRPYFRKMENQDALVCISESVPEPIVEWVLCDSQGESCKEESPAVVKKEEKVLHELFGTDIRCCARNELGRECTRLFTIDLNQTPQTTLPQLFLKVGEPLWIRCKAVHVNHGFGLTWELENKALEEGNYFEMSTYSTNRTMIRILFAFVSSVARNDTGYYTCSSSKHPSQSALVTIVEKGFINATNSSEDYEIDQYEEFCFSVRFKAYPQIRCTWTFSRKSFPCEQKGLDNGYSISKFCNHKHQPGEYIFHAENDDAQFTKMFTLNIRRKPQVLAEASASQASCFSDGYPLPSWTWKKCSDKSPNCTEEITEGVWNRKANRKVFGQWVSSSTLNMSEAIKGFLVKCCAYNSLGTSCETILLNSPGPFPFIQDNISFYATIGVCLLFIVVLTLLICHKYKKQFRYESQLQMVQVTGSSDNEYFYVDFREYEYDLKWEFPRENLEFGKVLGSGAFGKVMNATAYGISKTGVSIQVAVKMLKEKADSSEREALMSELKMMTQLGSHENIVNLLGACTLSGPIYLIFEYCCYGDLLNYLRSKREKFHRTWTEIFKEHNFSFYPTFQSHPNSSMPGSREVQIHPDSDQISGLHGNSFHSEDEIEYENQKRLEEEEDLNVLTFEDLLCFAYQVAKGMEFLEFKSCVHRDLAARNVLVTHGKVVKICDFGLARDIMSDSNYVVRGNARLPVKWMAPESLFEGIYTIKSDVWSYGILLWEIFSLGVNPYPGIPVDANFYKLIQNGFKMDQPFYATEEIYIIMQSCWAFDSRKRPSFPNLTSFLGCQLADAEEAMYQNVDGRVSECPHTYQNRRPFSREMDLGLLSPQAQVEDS

[9] = target: Mitogen-activated protein kinase 9 (Homo sapiens) (UniProt P45984)
[10] = target: T1, Tyrosine-protein kinase Mer (Homo sapiens) (UniProt Q12866)
T1 sequence (whole entry): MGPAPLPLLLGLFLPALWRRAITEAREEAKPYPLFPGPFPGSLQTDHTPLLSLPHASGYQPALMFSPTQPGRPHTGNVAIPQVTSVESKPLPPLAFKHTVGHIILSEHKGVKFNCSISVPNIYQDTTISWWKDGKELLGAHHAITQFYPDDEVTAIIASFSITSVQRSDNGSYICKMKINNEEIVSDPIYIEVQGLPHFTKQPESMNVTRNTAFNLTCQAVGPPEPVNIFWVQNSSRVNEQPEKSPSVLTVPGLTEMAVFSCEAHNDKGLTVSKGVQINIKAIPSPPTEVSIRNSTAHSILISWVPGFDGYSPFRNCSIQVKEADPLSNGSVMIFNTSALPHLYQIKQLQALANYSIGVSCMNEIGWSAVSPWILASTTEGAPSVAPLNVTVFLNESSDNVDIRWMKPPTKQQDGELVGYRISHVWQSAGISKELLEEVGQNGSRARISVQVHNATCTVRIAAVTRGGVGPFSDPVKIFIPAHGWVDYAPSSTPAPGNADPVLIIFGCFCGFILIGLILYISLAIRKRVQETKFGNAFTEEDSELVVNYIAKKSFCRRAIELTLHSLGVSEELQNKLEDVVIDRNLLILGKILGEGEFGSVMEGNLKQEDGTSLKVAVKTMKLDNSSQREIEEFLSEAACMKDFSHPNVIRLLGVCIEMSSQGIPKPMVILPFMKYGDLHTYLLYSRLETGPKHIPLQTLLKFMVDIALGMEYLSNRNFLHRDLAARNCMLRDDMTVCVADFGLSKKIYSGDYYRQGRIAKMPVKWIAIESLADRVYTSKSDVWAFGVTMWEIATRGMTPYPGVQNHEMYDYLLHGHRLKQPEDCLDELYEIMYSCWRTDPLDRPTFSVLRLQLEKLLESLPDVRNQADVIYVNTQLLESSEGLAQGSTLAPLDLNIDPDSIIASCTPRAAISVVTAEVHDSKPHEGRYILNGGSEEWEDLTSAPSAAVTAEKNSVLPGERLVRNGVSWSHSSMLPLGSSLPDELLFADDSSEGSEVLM

[11] = target: Serine/threonine-protein kinase MRCK beta (Homo sapiens) (UniProt Q9Y5S2)
[12] = target: Serine/threonine-protein kinase 24 (Homo sapiens) (UniProt Q9Y6E0)
[13] = target: Myosin-IIIb (Homo sapiens) (UniProt Q8WXR4)
[14] = target: Serine/threonine-protein kinase OSR1 (Homo sapiens) (UniProt O95747)
[15] = target: Serine/threonine-protein kinase PAK 4 (Homo sapiens) (UniProt O96013)
[16] = target: cAMP-dependent protein kinase catalytic subunit beta (Homo sapiens) (UniProt P22694)
[17] = target: Serine/threonine-protein kinase PLK2 (Homo sapiens) (UniProt Q9NYY3)
Chain of Serine/threonine-protein kinase PLK2 (Homo sapiens) (Q9NYY3 whole entry, looked up): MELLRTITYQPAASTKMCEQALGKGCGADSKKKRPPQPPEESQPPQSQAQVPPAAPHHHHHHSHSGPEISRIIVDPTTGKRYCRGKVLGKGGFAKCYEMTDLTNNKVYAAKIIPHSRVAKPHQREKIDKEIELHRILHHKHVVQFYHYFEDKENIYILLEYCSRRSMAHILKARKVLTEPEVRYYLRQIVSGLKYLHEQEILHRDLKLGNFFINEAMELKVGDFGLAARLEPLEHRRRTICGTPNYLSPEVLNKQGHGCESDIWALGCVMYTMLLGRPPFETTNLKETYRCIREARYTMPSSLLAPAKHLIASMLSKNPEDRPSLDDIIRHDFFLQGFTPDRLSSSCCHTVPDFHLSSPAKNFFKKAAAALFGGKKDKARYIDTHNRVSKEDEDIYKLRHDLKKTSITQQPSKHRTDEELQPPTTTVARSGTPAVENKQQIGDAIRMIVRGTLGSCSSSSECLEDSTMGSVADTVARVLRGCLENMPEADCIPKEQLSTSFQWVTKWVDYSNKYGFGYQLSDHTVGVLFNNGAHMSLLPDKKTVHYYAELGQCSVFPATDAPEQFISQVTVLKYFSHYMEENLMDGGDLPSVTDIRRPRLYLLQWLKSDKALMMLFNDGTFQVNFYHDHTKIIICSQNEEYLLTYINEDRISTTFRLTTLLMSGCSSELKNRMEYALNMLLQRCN

[18] = target: Serine/threonine-protein kinase RIO1 (Homo sapiens) (UniProt Q9BRS2)
[19] = target: Receptor-interacting serine/threonine-protein kinase 2 (Homo sapiens) (UniProt O43353)
[20] = target: Ribosomal protein S6 kinase alpha-2 (Homo sapiens) (UniProt Q15349)
Chain of Ribosomal protein S6 kinase alpha-2 (Homo sapiens) (Q15349 whole entry): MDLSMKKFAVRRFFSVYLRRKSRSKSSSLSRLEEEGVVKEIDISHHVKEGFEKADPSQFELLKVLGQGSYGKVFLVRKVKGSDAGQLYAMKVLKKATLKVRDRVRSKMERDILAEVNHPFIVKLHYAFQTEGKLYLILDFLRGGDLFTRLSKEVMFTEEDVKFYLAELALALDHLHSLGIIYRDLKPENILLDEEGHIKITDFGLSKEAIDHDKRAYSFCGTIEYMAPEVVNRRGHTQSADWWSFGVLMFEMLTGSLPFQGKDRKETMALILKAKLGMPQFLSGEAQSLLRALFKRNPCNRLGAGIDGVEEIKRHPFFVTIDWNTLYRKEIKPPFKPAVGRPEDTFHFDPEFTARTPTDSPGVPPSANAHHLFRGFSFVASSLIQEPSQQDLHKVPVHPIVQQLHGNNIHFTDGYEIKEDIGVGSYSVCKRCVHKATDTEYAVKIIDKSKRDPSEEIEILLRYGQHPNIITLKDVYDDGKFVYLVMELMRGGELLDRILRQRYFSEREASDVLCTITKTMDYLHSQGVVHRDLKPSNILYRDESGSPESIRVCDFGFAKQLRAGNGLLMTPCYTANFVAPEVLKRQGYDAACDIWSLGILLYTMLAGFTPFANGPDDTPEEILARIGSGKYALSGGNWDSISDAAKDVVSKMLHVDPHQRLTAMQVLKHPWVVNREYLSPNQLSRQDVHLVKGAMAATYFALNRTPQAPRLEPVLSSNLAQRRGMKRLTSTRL

[21] = target: SNF-related serine/threonine-protein kinase (Homo sapiens) (UniProt Q9NRH2)
Chain of SNF-related serine/threonine-protein kinase (Homo sapiens) (Q9NRH2 whole entry): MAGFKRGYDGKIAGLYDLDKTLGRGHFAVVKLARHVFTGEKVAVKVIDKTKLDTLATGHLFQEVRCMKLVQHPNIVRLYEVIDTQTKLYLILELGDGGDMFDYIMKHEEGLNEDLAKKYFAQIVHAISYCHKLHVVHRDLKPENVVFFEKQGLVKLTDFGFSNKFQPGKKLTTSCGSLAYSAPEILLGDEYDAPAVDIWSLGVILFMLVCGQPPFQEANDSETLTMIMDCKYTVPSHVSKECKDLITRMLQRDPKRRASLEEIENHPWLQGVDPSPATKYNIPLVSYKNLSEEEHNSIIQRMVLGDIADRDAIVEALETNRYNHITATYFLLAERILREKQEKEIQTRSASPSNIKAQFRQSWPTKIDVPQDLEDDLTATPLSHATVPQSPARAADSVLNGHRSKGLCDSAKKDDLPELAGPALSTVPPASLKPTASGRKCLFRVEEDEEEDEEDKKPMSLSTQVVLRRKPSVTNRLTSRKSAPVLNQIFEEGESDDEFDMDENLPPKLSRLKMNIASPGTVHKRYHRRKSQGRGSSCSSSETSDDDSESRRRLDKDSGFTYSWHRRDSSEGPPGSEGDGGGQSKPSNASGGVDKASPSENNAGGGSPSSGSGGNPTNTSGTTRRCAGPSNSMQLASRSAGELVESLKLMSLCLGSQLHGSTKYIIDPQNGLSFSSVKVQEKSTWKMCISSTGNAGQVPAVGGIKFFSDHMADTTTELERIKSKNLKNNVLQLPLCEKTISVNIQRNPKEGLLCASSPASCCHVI

[22] = target: Serine/threonine-protein kinase 36 (Homo sapiens) (UniProt Q9NRP7)
[23] = target: Testis-specific serine/threonine-protein kinase 1 (Homo sapiens) (UniProt Q9BXA7)
[24] = target: Serine/threonine-protein kinase 32C (Homo sapiens) (UniProt Q86UX6)
[25] = Compound concentration 1000.0 nM
[26] = Compound concentration 100.0 nM

Measured: residual activity

C[C@@H]1CN(c2cc(-c3nn(C)c4ccc(OC5(C)CC5)cc34)ncn2)C[C@H](C)O1 [MLi-2-NC]
inactive: [1]; [25] 100% | [2]; [25] 100% | [3]; [25] 81% | [4]; [25] 100% | [5]; [25] 67% | [6]; [25] 93% | [7]; [25] 100% | [8]; [25] 96% | [9]; [25] 78% | [10]; [25] 83% | [11]; [25] 100% | [12]; [25] 79% | [13]; [25] 100% | [14]; [25] 93% | [15]; [25] 93% | [16]; [25] 100% | [17]; [25] 68% | [18]; [25] 89% | [19]; [25] 100% | [20]; [25] 100% | [21]; [25] 92% | [22]; [25] 93% | [23]; [25] 99% | [24]; [25] 100%

C[C@@H]1CN(c2cc(-c3n[nH]c4ccc(OC5(C)CC5)cc34)ncn2)C[C@H](C)O1 [MLi-2]
inactive: [1]; [26] 100% | [2]; [26] 56% | [3]; [26] 85% | [4]; [26] 100% | [5]; [26] 53% | [6]; [26] 87% | [7]; [26] 100% | [8]; [26] 99% | [9]; [26] 72% | [10]; [26] 97% | [11]; [26] 93% | [12]; [26] 96% | [13]; [26] 89% | [14]; [26] 72% | [15]; [26] 97% | [16]; [26] 91% | [17]; [26] 76% | [18]; [26] 100% | [19]; [26] 100% | [20]; [26] 100% | [21]; [26] 94% | [22]; [26] 86% | [23]; [26] 72% | [24]; [26] 89%

From ChEMBL document CHEMBL4507291 (2021)
